Measurements reported in patent publication US20060257388A1, “Drug delivery systems for stabilized formulations of alpha adrenergic receptor antagonists and the uses thereof” (priority 2005, published 2006).
Counter-ions that a name gives are not always drawn.

How the values were obtained:
healthy adult volunteers = assay: Reversal of soft-tissue anesthesia after inferior alveolar nerve block, proof-of-principle trial (Example 3); assay type: in vivo, human; details: 0.2 mg in 1.8 ml
Procedure: The objective of this proof-of-principle trial was to evaluate the feasibility of reversing soft-tissue anesthesia by pharmacologically blocking the effects of epinephrine. […] Subjects self-evaluated the return of normal sensation in their lip, chin, tongue, nose, and teeth by palpations at 5-minute intervals starting at 5 minutes before the study drug injection and continuing for approximately 4-5 hours. To avoid biased responding, subjects were told that they could not leave the clinic for 8 hours after the last injection. Responses for soft tissues were categorized as (1) numb (no feeling), (2) feeling of pins and needles, or (3) normal sensation. Responses for teeth were (1) numb (no feeling) or (2) normal sensation. Safety was evaluated through reports of adverse events, measurement of vital signs and two-lead electrocardiograms before, during, and after the injections of anesthetic and study drug, and through pain assessments using visual analog scales.

[1] = Effect of buffer concentration on stability, sodium acetate pH 3.5, 60° C. (HPLC, pH); assay type: physicochemical
Procedure: (§1) The drug is monitored at a detection wavelength of 232 nm.
Tightly sealed glass vials containing the test solutions were placed in an oven at 40° C. or 60° C. All samples were stored in the dark. Aliquots were removed at designated time points for HPLC analysis and pH measurement. All samples were analyzed without dilution.
In conjunction with HPLC analysis, pH was measured. The measurement was performed using the same samples as used for the HPLC analysis. The pH meter was calibrated using pH 4.00 and 7.00 buffer standards prior to each measurement.
Samples were incubated at 60° C. with scheduled testing performed at day 0, 2, 7, and 14. The various buffer concentrations were prepared by diluting the 50 mM buffer with water and re-examining the pH value to determine if the pH 3.5 was constant. Measurements of pH were performed after HPLC analysis of the samples.

[2] = Narrow-range pH-stability profiling at 60° C. (HPLC); assay type: physicochemical; details: 50 mM sodium phosphate, FIG. 2
Procedure: as §1
All samples were stored in the dark. […] All samples were analyzed without dilution.
The phosphate buffers were prepared as previously described. The samples were analyzed by HPLC for phentolamine concentration and purity at an initial time point and after 2, 7 and 14 days of storage at 60° C. Measurement of sample pH was done after HPLC analysis.
In order to precisely define the most favorable pH, a stronger stressing condition was needed to generate a greater extent of degradation in the lower pH region. For this study, the incubation condition was shifted from 40° C. to 60° C. Since the extent of degradation after fourteen (14) days was still less than twenty percent (20%) in most samples, zero-order rate kinetics was used for the degradation curves (concentration versus time). The calculated rate constant was plotted against pH to provide the narrow-range pH-stability profile.

human = details: solution containing 0.05 mg/ml; cited from earlier work
patients [3] = details: 0.5-1.5 mg, patients pretreated with lignocaine admixed with epinephrine; cited from earlier work
patients [4] = details: systemic doses, package insert; cited from earlier work
[5] = tested on: healthy adult volunteer subjects; assay: Dose range study, reversal of local anesthesia after maxillary infiltration (Example 5); assay type: in vivo, human
Procedure: The objectives of this study were to evaluate the safety and efficacy of a range of doses of phentolamine in reversing local anesthesia after a maxillary infiltration. Four groups of eight healthy adult volunteer subjects were given an infiltration of the lateral incisor using one 1.8 ml cartridge of lidocaine 2% with epinephrine 1:100,000. […] Subjects palpated their upper lip, nose, and teeth every five minutes for the next five hours after injections.

[6] = tested on: healthy adult volunteer subjects; assay: Dose range study, reversal of local anesthesia after mandibular nerve block (Example 4); assay type: in vivo, human
From the text: The objectives of this study were to evaluate the safety and efficacy of a range of doses of phentolamine in reversing local anesthesia after a mandibular nerve block. […] Subjects palpated their lower lip, chin, tongue, and teeth every five minutes for the next five hours after injections.

[7] = Effect of additives on stability, 60° C. (HPLC); assay type: physicochemical; details: for Phentolamine Concentration: 10 mM Sodium Acetate, pH 3.5, 60° C.
From the text: as §1
The additives in this study are selected from five groups of injectable excipients namely, tonicity modifiers (NaCl and d-mannitol), metal chelators (EDTA), antioxidants (sodium metabisulfite), complexing agents α-cyclodextrin and niacinamide) and solvents (glycerol and polypropylene glycol). A tonicity modifier is required for adjusting the phentolamine mesylate solution to isotonic. […] Complexing agents were applied in the hope that a possible formation of an inclusion complex (by α-cyclodextrin) or stacking complex (by niacinamide) with phentolamine would modify the rate of hydrolytic degradation of the drug substance. Solvents were added to reduce the dielectric constant of the vehicle and were intended to slow the rate of degradation due to solvent polarity.
The pH value of the solutions was readjusted to pH 3.5, as required. The 25% glycerol (25 g in 100 ml total volume with water) and 25% polypropylene glycol (25 g in 100 ml total volume with water) solutions had their buffer strength adjusted by addition of acetic acid followed by addition of 2 N NaOH for pH adjustment to pH 3.5 followed by addition of the drug to 0.1 mg/ml.
All samples were placed in 10 ml glass serum vials, stoppered with rubber closures with an inert coating (Dalkyo Flurotec by WEST Pharmaceutical), and sealed with flip-top caps after sampling. Vials were placed at 60° C. after the weights were recorded.
Sampling occurred at the initial time point and on days 2, 7, and 14. Vials were weighed, sampled, sealed, re-weighed, and replaced under the selected storage condition until testing at the subsequent time point. Records indicate no significant weight loss during storage.

[8] = 0.02 mg, 0.08 mg, 0.4 mg in 1.8 ml
[9] = 0.02 mg, 0.06 mg, 0.4 mg in 1.8 ml

## Cc1ccc(N(CC2=NCCN2)c2cccc(O)c2)cc1 [Phentolamine Mesylate]
Healthy adult volunteers
  adverse effects: Adverse effects were few and no differences were noted between the active and placebo groups
  electrocardiogram: no abnormalities in the electrocardiogram
Healthy adult volunteers; 60 minutes after inferior alveolar nerve block with 2% lidocaine, 1:100,000 epinephrine, lip, chin, tongue, nose, teeth
  duration of anesthesia versus saline (in words): significantly (p<0.01) reduced the duration of anesthesia in each tissue
[1]; 50 mM Sodium Acetate pH 3.5, 60° C., Day 2
  Phentolamine Concentration: 101 µg/mL
[1]; 5, 10 and 50 mM sodium acetate
  rate of degradation versus un-buffered control (in words): comparable and was an improvement over the un-buffered control
[2]
  pH at which phentolamine was most stable: 3.5
human
  reversal of local anesthetic effect (in words): rapidly reverse the effect of a local anesthetic
Patients [3]
  duration of anesthesia (in words): reduction in the duration of anesthesia with increasing amounts
Patients [4]
  side effect warning: Myocardial infarction, cerebrovascular spasm, and cerebrovascular occlusion have been reported
[5]; [8]
  adverse events: Adverse events were few and no differences were noted between the active and placebo groups
  electrocardiogram: no abnormalities in the electrocardiogram
[5]; all doses tested (0.02 mg, 0.08 mg, 0.4 mg in 1.8 ml), 40 minutes after lateral incisor infiltration, upper lip, nose, teeth
  duration of anesthesia versus saline placebo (in words): significantly (p<0.01) reduced the duration of anesthesia in each measured tissue
[6]; [9]
  adverse events: Adverse events were few and no differences were noted between the active and placebo groups
  electrocardiogram: no abnormalities in the electrocardiogram
[6]; all doses tested (0.02 mg, 0.06 mg, 0.4 mg in 1.8 ml), 60 minutes after inferior alveolar nerve block, lower lip, chin, tongue, teeth
  duration of anesthesia versus saline placebo (in words): significantly (p<0.05) reduced the duration of anesthesia in each measured tissue
[7]; Additive Glycerol, 25% w/v, Day 0
  Phentolamine Concentration: 126 µg/mL
[7]; Additive Glycerol, 25% w/v, Day 2
  Phentolamine Concentration: 123 µg/mL
[7]; Additive Glycerol, 25% w/v, Day 14
  Phentolamine Concentration: 115 µg/mL
[7]; Additive Polypropylene glycol, 25% w/v, Day 0
  Phentolamine Concentration: 118 µg/mL
[7]; Additive Polypropylene glycol, 25% w/v, Day 2
  Phentolamine Concentration: 121 µg/mL
[7]; Additive Polypropylene glycol, 25% w/v, Day 7
  Phentolamine Concentration: 113 µg/mL
[7]; Additive Sodium metabisulfite, 0.5 mg/ml, Day 2
  Phentolamine Concentration: 101 µg/mL
[7]; Additive α-Cyclodextrin, 50 mg/ml, Day 0
  Phentolamine Concentration: 102 µg/mL
[7]; d-Mannitol and disodium EDTA
  impact of additives on stability (in words): improve stability based on the rate constant or to exhibit no negative impact based on purity values
